# Counter-ions that a name gives are not always drawn.
# Biological target: T1, Oxytocin receptor (uterin muscle membrane preparation) (Rattus norvegicus, UniProt P70536)
# T1 construct: was homogenized, which was used as a membrane; from tissue; host or cells: uterine muscle membranes from diethylstilbestrol-treated animals
# T1 sequence (P70536 1-388): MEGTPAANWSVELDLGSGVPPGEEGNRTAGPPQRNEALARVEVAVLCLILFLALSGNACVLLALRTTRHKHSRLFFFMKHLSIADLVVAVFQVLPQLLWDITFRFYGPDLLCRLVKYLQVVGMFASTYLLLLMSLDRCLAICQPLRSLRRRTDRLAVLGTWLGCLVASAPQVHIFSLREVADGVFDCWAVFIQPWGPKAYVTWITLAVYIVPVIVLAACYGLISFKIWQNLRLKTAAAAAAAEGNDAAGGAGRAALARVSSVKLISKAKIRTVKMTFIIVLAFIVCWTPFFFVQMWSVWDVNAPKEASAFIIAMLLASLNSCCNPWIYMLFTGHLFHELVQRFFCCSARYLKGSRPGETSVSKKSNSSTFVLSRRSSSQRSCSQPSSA
# Assay: Oxytocin receptor binding assay
# Settings: [3H]-oxytocin 10^-9 M, 25°, one hour, pH 8.0, uterin muscle membrane, DES-treated
# Procedure: Test-5 Oxytocin receptor binding assay
# In accordance with Chan's method [by W. Y. Chan, et al.: Endocrinology, 126, 2095-2101 (1990)], the uterin muscle benn injected subcutaneously with diethylstilbe-sterol (DES) the day before and was homogenized, which was used as a membrane prepara tion. The membrane preparation (0.2 mg), [^3 H]-oxytocin (100,000 dpm, 10^-9 M), a test compound (10^-9 to 10^-5 M) were incubated at 25°. for one hour in 100 mM Tris-HCl buffer (pH=8.0, 250 μl) containing 5 mM MgCl2, 1 mM EDTA and 0.1% BSA. The mixture was filtered through a glass filter (GF/F) so as to separate the membrane preparation combining with [^3 H]-oxytocin, then, was washed twicw with the buffer (5 ml). The glass filter was put into a vial and mixed with Aquasole (a liquid scintillation cocktail). The amount of [^3 H]-oxytocin combining w ith the membrane was measured by a liquid scintillation counter. The rate of the inhibitory effect of the test compound was calculated according to the equation as follows: […]
# C1 : the amount of [^3 H]-oxytocin combining with the membrane in the presence of a test compound (in known amount),
# C0 : the amount of [^3 H]-oxytocin combinig with the membrane in the absence of a test compound,
# B: the amount of [^3 H]-oxytocin combining with the membrane in the presence of the excess amount of oxytocin (5×10^-6 M).
# The results are expressed as IC50 values, which is the concentration of the test compound required to achieve the inhibitory effect in the rate of 50%.
row,IC50 [nM],Structure (SMILES)
1,360,Cc1ccccc1C(=O)Nc1ccc(C(=O)N2CCCC(CC(=O)N3CCN(C)CC3)c3cc(Cl)ccc32)cc1 (centres unmarked) [Example 109]
2,162,COc1cc(C(=O)N2CCCC(CC(=O)N3CCCN(C)CC3)c3cc(Cl)ccc32)ccc1NC(=O)c1ccccc1Br (centres unmarked) [Example 185]
3,13,"CCN(CC)CCN(CC)C(=O)CC1CCCN(C(=O)c2ccc(NC(=O)c3ccccc3Cl)cc2OC)c2ccc(Cl)cc21 (centres unmarked) [Example 175, 5-[N-(2-Diethylaminoethyl)-N-ethylamino]-carbonylmethyl-7-chloro-1-[2-methoxy-4-(2-chlorobenzoylamino)benzoyl]-2,3,4,5-tetrahydro-1H-benzoazepine]"
4,284,"COc1cc(NC(=O)c2ccccc2Cl)ccc1C(=O)N1CCCC(OCCN2CCCN(C)CC2)c2cc(Cl)ccc21 (centres unmarked) [Example 180, 5-[2-(4-Methyl-1-homopiperazinyl)ethoxy]-7-chloro-1-[2-methoxy-4-(2-chlorobenzoylamino)benzoyl]-2,3,4,5-tetrahydro-1H-benzoazepine]"
5,2200,"CNC(=O)CC1CCCN(C(=O)c2ccc(NC(=O)c3ccccc3Cl)cc2C)c2ccc(Cl)cc21 (centres unmarked) [Example 122, 5-Methylaminocarbonylmethyl-7-chloro-1-[2-methyl-4-(2-chlorobenzoylamino)benzoyl]-2,3,4,5-tetrahydro-1H-benzoazepine]"
6,2200,Cc1cc(NC(=O)c2ccccc2Cl)ccc1C(=O)N1CCCC(CC(N)=O)c2cc(Cl)ccc21 (centres unmarked) [Example 123]
7,270,"COc1cc(C(=O)N2CCCC(CC(=O)N3CCN(C)CC3)c3cc(Cl)ccc32)ccc1NC(=O)c1ccccc1Br (centres unmarked) [Example 119, 5-(4-Methyl-1-piperazinyl)carbonylmethyl-7-chloro-1-[3-methoxy-4-(2-bromobenzoylamino)benzoyl]-2,3,4,5-tetrahydro-1H-benzoazepine]"
8,280,"Cc1ccccc1C(=O)Nc1ccc(C(=O)N2CCCC(CC(N)=O)c3cc(Cl)ccc32)cc1 (centres unmarked) [Example 112, 5-Carbamoylmethyl-7-chloro-1-[4-(2-methylbenzoylamino)benzoyl]-2,3,4,5-tetrahydro-1H-benzoazepine]"
9,2600,"COc1cc(NC(=O)c2ccccc2Cl)ccc1C(=O)N1CCC=C(CCN2CCN(C(C)=O)CC2)c2cc(Cl)ccc21 [Example 179, 5-[2-(4-Acetyl-1-piperazinyl)ethyl]-7-chloro-1-[2-methoxy-4-(2-chlorobenzoylamino)benzoyl]-2,3,-dihydro-1H-benzoazepine]"
10,2190,"Cc1ccccc1C(=O)Nc1ccc(C(=O)N2CCCC(CC(N)=O)c3cc(Cl)ccc32)c(Cl)c1 (centres unmarked) [Example 173, 5-Carbamoylmethyl-7-chloro-1-[2-chloro-4-(2-methylbenzoylamino)benzoyl]-2,3,4,5-tetrahydro-1H-benzoazepine]"
11,230,"COc1cc(NC(=O)Cc2ccccc2C)ccc1C(=O)N1CCCC(OC(=O)CN(C)C)c2cc(Cl)ccc21 (centres unmarked) [Example 68, 5-(2-Dimethylaminoacetyloxy)-7-chloro-1-{2-methoxy-4-[2-(2-methylphenyl)acetylamino]benzoyl}-2,3,4,5-tetrahydro-1H-benzoazepine]"
12,1050,"CC(=O)N1CCN(CCC2CCCN(C(=O)c3ccc(NC(=O)c4ccccc4C)cc3Cl)c3ccc(Cl)cc32)CC1 (centres unmarked) [Example 174, 5-[2-(4-Acetyl-1-piperazinyl)ethyl]-7-chloro-1-[2-chloro-4-(2-methylbenzoylamino)benzoyl]-2,3,4,5-tetrahydro-1H-benzoazepine]"
13,46,"COc1cc(NC(=O)c2ccccc2C)ccc1C(=O)N1CCCC(OC(=O)CN2CCOCC2)c2cc(Cl)ccc21 (centres unmarked) [Example 17, 5-(2-Morpholinoacetyloxy)-7-chloro-1-[2-methoxy-4-(2-methylbenzoylamino)benzoyl]-2,3,4,5-tetrahydro-1H-benzoazepine]"
14,4410,COc1cc(NC(=O)c2cccc3c2OCCC3)ccc1C(=O)N1CCCC(CC(=O)N2CCN(C)CC2)c2cc(Cl)ccc21 (centres unmarked) [Example 183]
15,2300,"C=CCNCCC1CCCN(C(=O)c2ccc(NC(=O)c3ccccc3Cl)cc2C)c2ccc(Cl)cc21 (centres unmarked) [Example 121, 5-(2-Allylaminoethyl)-7-chloro-1-[2-methyl-4-(2-chlorobenzoylamino)benzoyl]-2,3,4,5-tetrahydro-1H-benzoazepine]"
16,250,O=C(Nc1ccc(C(=O)N2CCCC(OCCO)c3cc(Cl)ccc32)cc1)c1ccccc1Cl (centres unmarked) [Example 113]

row,IC50 [nM],Structure (SMILES)
1,600,"Cc1ccccc1CC(=O)Nc1ccc(C(=O)N2CCCC(O)c3cc(Cl)ccc32)cc1 (centres unmarked) [Example 106, 5-Hydroxy-7-chloro-1-{4-[2-(2-methylphenyl)acetylamino]benzoyl}-2,3,4,5-tetrahydro-1H-benzoazepine]"
2,258,"COc1cc(NC(=O)c2ccccc2Cl)ccc1C(=O)N1CCCC(OCCNC2CCCC2)c2cc(Cl)ccc21 (centres unmarked) [Example 177, 5-(2-Cyclopentylaminoethoxy)-7-chloro-1-[2-methoxy-4-(2-chlorobenzoylamino)benzoyl]-2,3,4,5-tetrahydro-1H-benzoazepine]"
3,606,COc1cc(NC(=O)c2ccccc2Cl)ccc1C(=O)N1CCCC(CC(=O)N2CCN(c3ccccc3Cl)CC2)c2cc(Cl)ccc21 (centres unmarked) [Example 181]
4,99,"COc1cc(NC(=O)c2ccccc2Br)ccc1C(=O)N1CCCC(CC(=O)N2CCC(NC(C)=O)CC2)c2cc(F)ccc21 (centres unmarked) [Example 60, 5-[(4-Acetylamino-1-piperidinyl)carbonylmethyl]-7-fluoro-1-[2-methoxy-4-(2-bromobenzoylamino)benzoyl]-2,3,4,5-tetrahydro-1H-benzoazepine]"
5,2100,Cc1ccccc1C(=O)Nc1ccc(C(=O)N2CCCC(CC(=O)N3CCNCC3)c3cc(Cl)ccc32)c(C)c1 (centres unmarked) [Example 115]
6,1900,Cc1ccccc1C(=O)Nc1ccc(C(=O)N2CCCC(CC(=O)N3CCN(C)CC3)c3cc(Cl)ccc32)c(Cl)c1 (centres unmarked) [Example 108]
7,1300,COc1cc(C(=O)N2CCCC(OC(=O)[C@@H](N)CCCCN)c3cc(Cl)ccc32)ccc1NC(=O)c1ccccc1C (some centres unmarked) [Example 107]
8,380,CN1CCN(C(=O)CC2CCCN(C(=O)c3ccc(NC(=O)c4ccccc4Cl)cc3)c3ccc(Cl)cc32)CC1 (centres unmarked) [Example 116]
9,170,COc1cc(NC(=O)c2ccccc2Br)ccc1C(=O)N1CCCC(CC(=O)N2CCCC2)c2cc(F)ccc21 (centres unmarked) [Example 114]
10,190,"COc1cc(C(=O)N2CCCC(CC(=O)N(C)C)c3cc(Cl)ccc32)ccc1NC(=O)c1ccccc1Br (centres unmarked) [Example 120, 5-Dimethylaminocarbonylmethyl-7-chloro-1-[3-methoxy-4-(2-bromobenzoylamino)benzoyl]-2,3,4,5-tetrahydro-1H-benzoazepine]"
11,2800,"Cc1ccccc1C(=O)Nc1ccc(C(=O)N2CCCC(CCN3CCOCC3)c3cc(Cl)ccc32)c(C)c1 (centres unmarked) [Example 124, 5-Morpholinoethyl-7-chloro-1-[2-methyl-4-(2-methylbenzoylamino)benzoyl]-2,3,4,5-tetrahydro-1H-benzoazepine]"
12,387,"COc1cc(NC(=O)c2ccccc2Cl)ccc1C(=O)N1CCCC(OCCn2cncn2)c2cc(Cl)ccc21 (centres unmarked) [Example 176, 5-[2-(1,2,4-Triazol-1-yl)ethoxy]-7-chloro-1-[2-methoxy-4-(2-chlorobenzoylamino)benzoyl]-2,3,4,5-tetrahydro-1H-benzoazepine]"
13,3200,"Cc1ccccc1C(=O)Nc1ccc(C(=O)N2CCCC(CC(=O)N3CCC(N(C)C)CC3)c3cc(Cl)ccc32)c(C)c1 (centres unmarked) [Example 118, 5-(4-Dimethylamino-1-piperidinyl)carbonylmethyl-7-chloro-1-[2-methyl-4-(2-methylbenzoylamino)benzoyl]-2,3,4,5-tetrahydro-1H-benzoazepine.cndot.hydrochloride]"
14,610,"COc1cc(C(=O)N2CCCC(CC(=O)N(C)C)c3cc(Cl)ccc32)ccc1NC(=O)c1ccccc1C (centres unmarked) [Example 32, 5-Dimethylaminocarbonylmethyl-7-chloro-1-[3-methoxy-4-(2-methylbenzoylamino)benzoyl]-2,3,4,5-tetrahydro-1H-benzoazepine]"
15,4710,CN(C)C(=O)CC1CCCN(C(=O)c2ccc(NC(=O)c3ccccc3OCCCCNC(C)(C)C)cc2)c2ccc(Cl)cc21 (centres unmarked) [Example 182]
16,969,"CN1CCN(C(=O)CC2CCCN(C(=O)c3ccc(NC(=O)c4ccccc4)cc3)c3ccc(Cl)cc32)CC1 (centres unmarked) [Example 178, 5-(4-Methyl-1-piperazinyl)carbonylmethyl-7-chloro-1-(4-benzoylaminobenzoyl)-2,3,4,5-tetrahydro-1H-benzoazepine]"
